In patent US6066484A, “Purine nucleosidase” (Suntory Limited, priority 1996, dated 2000):
Entries after “also recorded” stand apart in the source; their conditions may differ.

Key:
Assay type in all cases: biochemical, Ochrobactrum anthropi
purine nucleosidase [1] = test: Substrate specificity of purine nucleosidase by thin-layer chromatography; design: key to Relative activity: -: not reacted; +: <10%; ++: <31%; +++: <50%; ++++: >50%; conditions: for Relative activity: thin-layer chromatography
Description: (§1) The reaction solution (200 μl) contained 0.5 mM of adenosine or inosine or 0.25 mM of guanosine as the substrate, 50 mM of acetate buffer at pH 4.5 and a sufficient amount of enzyme. The reaction was initiated by addition of the enzyme, and the reaction was conducted at 50° C. for 5 minutes. The reaction was terminated by addition of 20 μl of 15% perchloric acid, and after centrifugation (35,000 rpm, 10 min) the supernatant was analyzed qualitatively by thin-layer chromatography (TLC) and quantitatively by high-performance liquid chromatography. The analysis methods were as follows.
(1) Thin-layer chromatography
Plate: Kieselgel 60F254 (Merk)
Developing solution: n-butanol/isopropanol/H2 O/NH4 OH=1:7:2:0.2 (v/v/v/v) (for adenosine and guanosine substrates), n-butanol/acetic acid/H2 O=5:1:1 (v/v/v) (for inosine substrate)
The substrate specificity of the purine nucleosidase was determined by thin-layer chromatography (TLC).
(§2) The specific activity was measured under conditions of 50° C., pH 4.5. The Km and Vmax were measured under conditions of 30° C., pH 4.5. The relative activity was expressed according to the following measurement method.

purine nucleosidase [2] = test: Effect of inhibitors on purine nucleosidase; conditions: 1 mM inhibitor; for Relative activity: pH 4.5, 30° C., 20 minutes, not added = 100.0
Description: as §1
The activity was measured after adding 1 mM of different inhibitors to the activity measurement solution. The reaction was conducted at pH 4.5, 30° C. for 20 minutes.

purine nucleosidase [3] = test: Effect of metal ions on purine nucleosidase; conditions: for Inhibition or activation of purine nucleosidase by metal ions (in words): 1 mM metal ion; for Relative activity: 1 mM metal, pH 4.5, 30° C., 40 minutes, not added = 100.0
Description: as §1
Various metal ions were added to the activity measuring solution in an amount of 1 mM to measure the activity. The reaction was conducted at pH 4.5, 30° C. for 40 minutes.

[4] = system: Active fraction 1 (purine nucleosidase activity); test: Purine nucleosidase activity of active fraction 1 (1st DEAE-Sephacel)
Description: After suspending 20 g of the wet cells in 40 ml of 10 mM Tris-HCl buffer solution (pH 7.4) (hereunder referred to as "buffer"), they were disrupted in a Dynamill at 4° C. for 10 minutes. After filtering the disrupted cell suspension it was centrifuged (10,000 rpm, 60 min) and the supernatant was used as a cell-free extract. The cell-free extract (250 ml) was dialyzed for 12 hours against 5 L of buffer and then applied to a DEAE-Sephacel column (3×30 cm, 200 ml) which had been equilibrized with the buffer. The adsorbed protein was eluted with an NaCl concentration gradient from 0 to 1.0 M and the active fractions were recovered.
The purine nucleosidase activity at this time was split into two peaks (FIG. 1). Fraction nos. 46 to 69 were collected as the first active fraction and fraction nos. 85 to 101 were collected as the second active fraction.
as §1

[5] = system: Active fraction 2 (purine nucleosidase activity); test: Purine nucleosidase activity of active fraction 2 (1st DEAE-Sephacel)
purine nucleosidase [6] = test: Specific activity, Km and Vmax of purine nucleosidase; conditions: pH 4.5
Description: as §1
(2) High-performance liquid chromatography
Eluent: 0.1 M sodium chlorate tetrahydrate, 0.1% (v/v) phosphoric acid
as §2

Row | Compound | Relative activity (purine nucleosidase [1]) | Relative activity (purine nucleosidase [3]) | further results
1 | 2'-chloroadenosine | ++++ (>50%) |  | 
2 | 5'-bromouridine | - |  | 
3 | Nc1ncnc2c1ncn2[C@@H]1O[C@H](CO)[C@@H](O)[C@H]1OP(=O)(O)O [2'-AMP, 2'-adenosine monophosphate] | ++ (<31%) |  | 
4 | Nc1ccn([C@@H]2O[C@H](CO)[C@@H](O)[C@H]2OP(=O)(O)O)c(=O)n1 [2'-CMP] | + (<10%) |  | 
5 | O=c1[nH]cnc2c1ncn2[C@@H]1O[C@H](CO)[C@@H](O)[C@H]1OP(=O)(O)O [2'-IMP] | - |  | 
6 | Nc1ncnc2c1ncn2[C@H]1C[C@H](O)[C@@H](CO)O1 [2'-deoxyadenosine] | ++ (<31%) |  | 
7 | O=c1ccn([C@H]2C[C@H](O)[C@@H](CO)O2)c(=O)[nH]1 [2'-deoxyuridine] | - |  | 
8 | Nc1ncnc2c1ncn2[C@@H]1O[C@H](CO)[C@@H](OP(=O)(O)O)[C@H]1O [3'-AMP, 3'-adenosine monophosphate] | ++ (<31%) |  | 
9 | Nc1ncnc2c1ncn2[C@@H]1O[C@H](COP(=O)(O)O)[C@@H](O)[C@H]1O [5'-AMP, 5'-adenosine monophosphate] | ++ (<31%) |  | 
10 | Nc1ccn([C@@H]2O[C@H](COP(=O)(O)O)[C@@H](O)[C@H]2O)c(=O)n1 [5'-CMP] | - |  | 
11 | Nc1nc2c(ncn2[C@@H]2O[C@H](COP(=O)(O)O)[C@@H](O)[C@H]2O)c(=O)[nH]1 [5'-GMP, 5'-guanosine monophosphate] | + (<10%) |  | 
12 | O=c1[nH]cnc2c1ncn2[C@@H]1O[C@H](COP(=O)(O)OP(=O)(O)O)[C@@H](O)[C@H]1O [5'-IDP] | - |  | 
13 | O=c1ccn([C@@H]2O[C@H](COP(=O)(O)O)[C@@H](O)[C@H]2O)c(=O)[nH]1 [5'-UMP] | - |  | 
14 | O=c1[nH]c(=O)c2ncn([C@@H]3O[C@H](COP(=O)(O)O)[C@@H](O)[C@H]3O)c2[nH]1 [5'-XMP] | + (<10%) |  | 
15 | Oc1cccc2cccnc12 [8-hydroxyquinoline] |  |  | Relative activity (purine nucleosidase [2]): 8.5%
16 | O=S(=O)([O-])[O-].[Ag+].[Ag+] [Ag2 SO4] |  | 31.6% | Inhibition or activation of purine nucleosidase by metal ions (in words) (purine nucleosidase [3]; listed as Ag^+): Inhibition occurred; also recorded: Inhibited
17 | [Cl][Al]([Cl])[Cl] [AlCl3] |  | 73.6% | 
18 | [Ba+2].[Cl-].[Cl-] [BaCl2] |  | 86.1% | 
19 | O=S(=O)([O-])[O-].[Be+2] [BeSO4] |  | 88.9% | 
20 | [Ca+2].[Cl-].[Cl-] [CaCl2] |  | 101.7% | 
21 | [Cl][Cd][Cl] [CdCl2] |  | 124.9% | 

Row | Compound | Relative activity (purine nucleosidase [1]) | Relative activity (purine nucleosidase [3]) | further results
22 | [Cl-].[Cl-].[Co+2] [CoCl2] |  | 82.9% | 
23 | [Cl-].[Cs+] [CsCl] |  | 106.9% | 
24 | O=S(=O)([O-])[O-].[Cu+2] [CuSO4] |  | 42.7% | Inhibition or activation of purine nucleosidase by metal ions (in words) (purine nucleosidase [3]; listed as Cu^2+): Inhibition occurred; also recorded: Inhibited
25 | O=C(O)c1cc(SSc2ccc([N+](=O)[O-])c(C(=O)O)c2)ccc1[N+](=O)[O-] [DTNB, 5,5'-dithiobis(2-nitrobenzoic acid)] |  |  | Inhibition of purine nucleosidase (in words) (purine nucleosidase [2]): Inhibition occurred; also recorded: inhibited; Relative activity (purine nucleosidase [2]): 37.4%
26 | O=C(O)CN(CCN(CC(=O)O)CC(=O)O)CC(=O)O [EDTA-Na2] |  |  | Relative activity (purine nucleosidase [2]): 54.4%
27 | [Cl][Fe]([Cl])[Cl] [FeCl3] |  | 100.0% | 
28 | O=S(=O)([O-])[O-].[Fe+2] [FeSO4] |  | 92.6% | 
29 | [Cl][Hg][Cl] [HgCl2] |  | 39.4% | Inhibition or activation of purine nucleosidase by metal ions (in words) (purine nucleosidase [3]; listed as Hg^2+): Inhibition occurred; also recorded: Inhibited
30 | [Cl-].[K+] [KCl] |  | 100.9% | 
31 | [Cl-].[Li+] [LiCl] |  | 103.0% | 
32 | [Cl-].[Cl-].[Mg+2] [MgCl2] |  | 91.6% | 
33 | [Cl][Mn][Cl] [MnCl2] |  | 65.5% | Inhibition or activation of purine nucleosidase by metal ions (in words) (purine nucleosidase [3]; listed as Mn^2+): Inhibition occurred; also recorded: Inhibited
34 | O=C1CCC(=O)N1Br [N-bromosuccimide] |  |  | Relative activity (purine nucleosidase [2]): 113.7%
35 | CCN1C(=O)C=CC1=O [N-ethylmaleimide] |  |  | Relative activity (purine nucleosidase [2]): 107.9%
36 | Cl.NO [NH2 OH·HCl] |  |  | Relative activity (purine nucleosidase [2]): 106.6%
37 | [Cl-].[Na+] [NaCl] |  | 93.3% | 
38 | [Cl][Ni][Cl] [NiCl2] |  | 91.3% | 
39 | [Cl][Pb][Cl] [PbCl2] |  | 111.0% | 
40 | [Cl-].[Rb+] [RbCl] |  | 106.5% | 
41 | [Cl][Sn][Cl] [SnCl2] |  | 113.2% | 
42 | O=S(=O)([O-])[O-].[Zn+2] [ZnSO4] |  | 74.9% | Inhibition or activation of purine nucleosidase by metal ions (in words) (purine nucleosidase [3]; listed as Zn^2+): Inhibition occurred; also recorded: Inhibited

Row | Compound | Relative activity (purine nucleosidase [1]) | Relative activity (purine nucleosidase [3]) | further results
43 | Nc1ncnc2c1ncn2[C@@H]1O[C@H](CO)[C@@H](O)[C@H]1O [adenosine] | ++++ (>50%) |  | Specific activity, Active fraction 1 ([4]; 30° C.): 0.70 µmol/min/mg; Specific activity, Active fraction 1 ([4]; 50° C.): 3.6 µmol/min/mg; Specific activity, Active fraction 2 ([5]; 30° C.): 0.59 µmol/min/mg; Specific activity, Active fraction 2 ([5]; 50° C.): 0.45 µmol/min/mg; decomposition of purine nucleosides (in words) (purine nucleosidase [1]; pH 5.5 and 60° C.): capable of decomposing; Km (purine nucleosidase [6]; 30° C.): 17.1 µM; Vmax (purine nucleosidase [6]; 30° C.): 28.5 µmol/min/mg; Specific activity (purine nucleosidase [6]; 50° C.): 292 µmol/min/mg
44 | Nc1ncnc2c1ncn2[C@@H]1O[C@H](CO)C[C@H]1O [cordycepin] | ++ (<31%) |  | 
45 | Nc1ccn([C@@H]2O[C@H](CO)[C@@H](O)[C@H]2O)c(=O)n1 [cytidine] | - |  | 
46 | NC(=O)c1ccc[n+]([C@@H]2O[C@H](COP(=O)([O-])OP(=O)(O)OC[C@H]3O[C@@H](n4cnc5c(=O)[nH]cnc54)[C@H](O)[C@@H]3O)[C@@H](O)[C@H]2O)c1 [deamino NAD] | - |  | 
47 | O=C(O)CI [iodoacetic acid] |  |  | Relative activity (purine nucleosidase [2]): 99.4%
48 | c1cnc2c(c1)ccc1cccnc12 [o-phenanthroline] |  |  | Relative activity (purine nucleosidase [2]): 78.3%
49 | O=C(O)c1cc[c]([Hg][Cl])cc1 [p-CMB] |  |  | Relative activity (purine nucleosidase [2]): 80.2%
50 | NNc1ccccc1 [phenylhydrazine] |  |  | Relative activity (purine nucleosidase [2]): 100.4%
51 | O=c1[nH]cc([C@@H]2O[C@H](CO)[C@@H](O)[C@H]2O)c(=O)[nH]1 [pseudouridine] | - |  | 
52 | NNC(N)=O [semicarbazide] |  |  | Relative activity (purine nucleosidase [2]): 103.4%
53 | O=[As]([O-])([O-])O.[Na+].[Na+] [sodium arsenate] |  |  | Relative activity (purine nucleosidase [2]): 69.4%
54 | [N-]=[N+]=[N-] [sodium azide] |  |  | Inhibition of purine nucleosidase (in words) (purine nucleosidase [2]): Inhibition occurred; also recorded: inhibited; Relative activity (purine nucleosidase [2]): 72.9%
55 | [F-].[Na+] [sodium fluoride] |  |  | Inhibition of purine nucleosidase (in words) (purine nucleosidase [2]): Inhibition occurred; also recorded: inhibited; Relative activity (purine nucleosidase [2]): 62.2%
56 | O=[Se](O)O [sodium selenite] |  |  | Inhibition of purine nucleosidase (in words) (purine nucleosidase [2]): Inhibition occurred; also recorded: inhibited
57 | Cc1cn([C@H]2C[C@H](O)[C@@H](CO)O2)c(=O)[nH]c1=O [thymidine] | - |  | 
58 | O=c1ccn([C@@H]2O[C@H](CO)[C@@H](O)[C@H]2O)c(=O)[nH]1 [uridine] | - |  | 
59 | NC(=O)c1ccc[n+]([C@@H]2O[C@H](COP(=O)([O-])OP(=O)(O)OC[C@H]3O[C@@H](n4cnc5c(N)ncnc54)[C@H](O)[C@@H]3O)[C@@H](O)[C@H]2O)c1 [β-NAD, β-nicotinamide adenine dinucleotide] | + (<10%) |  | 
60 | NC(=O)c1ccc[n+]([C@@H]2O[C@H](COP(=O)([O-])OP(=O)(O)OC[C@H]3O[C@@H](n4cnc5c(N)ncnc54)[C@H](OP(=O)(O)O)[C@@H]3O)[C@@H](O)[C@H]2O)c1 [β-NADP] | - |  | 
61 | NC(=O)c1ccc[n+]([C@@H]2O[C@H](COP(=O)([O-])O)[C@@H](O)[C@H]2O)c1 [β-NMN] | - |  | 
